Assays:
[1] = randomized, double-blind, placebo-controlled trial of esomeprazole 20 mg once daily for 26 weeks in patients receiving ASA; assay type: in vivo
Experimental: Patients were randomized to receive either esomeprazole 20 mg (administered as esomeprazole magnesium, i.e. Nexium® owned by AstraZeneca AB) or placebo once daily for 26 weeks. The primary outcome variable was the presence of gastric and/or duodenal ulcers at endoscopy over the 26-week period. A total of 991 patients, all receiving ASA in doses varying between 75-325 mg/day (57.1% male, mean age 69.3 years, mean acetyl salicylic acid (ASA) dose 124.0 mg/day) were included in the intent-to-treat population. The cumulative proportion of patients without either gastric or duodenal ulcer at 26 weeks was 98.2% with esomeprazole, compared with 93.8% with placebo (life table estimates, p=0.0007). The incidence of gastric ulcers was lower in patients taking esomeprazole than in those taking placebo (1.2% vs. 3.8%), as was the incidence of duodenal ulcers (0.4% and 1.6% for esomeprazole and placebo, respectively). Eight patients (1.6%) had developed an ulcer, in the esomeprazole group by 6 months, compared with 27 patients (5.4%) in the placebo group. This corresponded to a relative reduction of developing an ulcer of 70% when taking esomeprazole rather than placebo. A total of 95.6% of patients treated with esomeprazole had no esophageal lesions at week 26, compared with 81.7% of patients treated with placebo (p<0.0001).

[2] = concomitant administration for patients treated with ASA (Müller et al 1997); cited from earlier work
[3] = cited from earlier work
[4] = esomeprazole 20 mg once daily, 26 weeks, patients on ASA

COc1ccc2nc([S@@+]([O-])Cc3ncc(C)c(OC)c3C)[nH]c2c1 [esomeprazole]
resolution of investigator-assessed upper gastrointestinal symptoms ([1]; all symptoms, versus placebo): higher with esomeprazole than with placebo
safety and tolerability ([1]; esomeprazole 20 mg once daily for 26 weeks, patients on ASA): safe and well tolerated
incidence of duodenal ulcers [1, 4]: 0.4%
incidence of gastric ulcers [1, 4]: 1.2%
cumulative proportion of patients without either gastric or duodenal ulcer at 26 weeks ([1]; esomeprazole 20 mg once daily, 26 weeks, patients ≧60 years on ASA 75-325 mg/day, life table estimates, p=0.0007 vs placebo): 98.2%
patients who had developed an ulcer by 6 months ([1]; esomeprazole 20 mg once daily, patients on ASA, eight patients): 1.6%
patients with no esophageal lesions at week 26 ([1]; esomeprazole 20 mg once daily, patients on ASA, p<0.0001 vs placebo): 95.6%
relative reduction of developing an ulcer ([1]; esomeprazole rather than placebo, by 6 months): 70%
proportion of patients without esophageal lesions at 6 months ([1]; patients with no lesions and those with Los Angeles grade A lesions at baseline, versus placebo): higher with esomeprazole than with placebo

Cc1c(OCC(F)(F)F)ccnc1C[S+]([O-])c1nc2ccccc2[nH]1 (stereo not drawn) [lansoprazole]
effect on damages on the mucosa caused by ASA [2]: reduce damages on the mucosa caused by ASA

CC(=O)Oc1ccccc1C(=O)O [ASA, acetyl salicylic acid]
relative risk of developing an ulcer complication like bleeding from the stomach or the duodenum ([3]; daily dose as low as 75 mg (Weil et al BMJ 1995)): doubles
hospital admissions due to adverse drug reactions caused by ASA ([3]; epidemiological data from the UK (Pirmohamed et al BMJ 2004)): 18%

— US20070122470A1, “New Combination Dosage Form” (priority 2005, published 2007)
